# Reference: patent publication US20140044690A1, “High-Energy Compounds for Use in Alzheimer's and Other Neurodegenerative Diseases” (University Of South Florida, priority 2012, published 2014)
# How the values were obtained:
# [1] = test system: SH-SY5Y cells; experiment: Cell survival and viability MTT assay / microscopy in SH-SY5Y cells; assay type: cell-based; details: for cell survival, of the untreated control, rotenone-induced death: 2 days, pre-incubation 1 mM each; for cell survival, of the control, H2O2-induced death: 0.6 mM H2O2, by 20 hours, pre-treatment 1 mM each; for cell survival in H2O2-induced death (in words): H2O2 (not shown)
# Experimental: SH-SY5Y cells were subcultured in the 12-well plate in DMEM containing 10% fetal bovine serum until 50% confluency. For experiment, the medium was replaced with serum-free DMEM and testing agents were added. The culture was continued in the incubator and parallel samples were taken out at various time intervals for microscopic examination or cell viability assay using an MTT toxicity assay kit (Sigma, Mo.) according to the manufacturer's instructions with modifications (Chen and Fernandez, 2004).
# [2] = test system: APP α-processing; experiment: APP secretion assay (sAPPα release, Western blotting) in SH-SY5Y cells; assay type: cell-based, human; details: for sAPPα release relative to basal line: 1 mM each; for sAPPα release relative to basal line / effect on APP α-processing / APP secretion (in words): 2 hours; for effect on APP α-processing / APP secretion (in words): compared with ATP, acetyl-coA, PCr
# Experimental: (§1) SH-SY5Y and fibroblast cells were routinely maintained in DMEM supplemented with 10% bovine fetal serum and 100 μg/ml of streptomycine and 100 U/ml of penicillin. For APP secretion assay, the cells were subcultured in the 12-well plate until confluence and then pre-incubated in the serum-free DMEM for 1 hour before the addition of the testing agents. After incubation for 2 hours at 37° C., conditioned medium was collected and cleared by centrifugation. Proteins were precipitated by trichloroacetic acid and processed for gel electrophoresis and Western blotting as described previously (Weidemann et al. 1989; Chen and Fernandez, 2004). A near-infrared dye-conjugated secondary antibody (LI-COR Biosci., NE, USA) was used and visualized with a LI-COR Odyssey Infrared Imaging System.
# [3] = test system: APP α-processing; experiment: APP secretion assay (sAPPα release) in human skin fibroblasts from young and aged donors; assay type: cell-based; details: for sAPPα release in aged cells, of the young cell level: aged human skin fibroblasts (donor age 81-96), 0.5 mM each, untreated aged cells 42.5%; for sAPPα level, of the control, co-treatment with H2O2: 0.2 mM H2O2 two hours; for sAPPα level, of the control, co-treatment with H2O2 / sAPPα level, of the control, co-treatment with rotenone: co-treatment 1.5 mM each; for sAPPα level, of the control, co-treatment with rotenone: 0.2 μM rotenone two hours
# Experimental: as §1
structure (smiles),measurement,setting,value
"CN(CC(=O)O)C(=N)NP(=O)(O)O [PCr, phosphocreatine]","cell survival, of the untreated control, rotenone-induced death","[1]; 0.2 μM rotenone, MTT",42%
same,"cell survival, of the control, H2O2-induced death",[1],49%
same,sAPPα release relative to basal line,[2],4.2 fold
same,"sAPPα release in aged cells, of the young cell level",[3],79.6%
"N[C@@H](CCC(=O)O)C(=O)O [glutamate, reference compound]",sAPPα release relative to basal line,[2],2.3 fold
"CC(=O)SCCNC(=O)CCNC(=O)[C@H](O)C(C)(C)COP(=O)(O)OP(=O)(O)OC[C@H]1O[C@@H](n2cnc3c(N)ncnc32)[C@H](O)[C@@H]1OP(=O)(O)O [acetyl-coA, acetyl coenzyme A]","cell survival, of the untreated control, rotenone-induced death","[1]; 0.2 μM rotenone, MTT",35%
same,"cell survival, of the control, H2O2-induced death",[1],21%
same,sAPPα release relative to basal line,[2],3.8 fold
same,"sAPPα level, of the control, co-treatment with H2O2",[3]; young fibroblasts,74.5%
"Nc1nc2c(ncn2[C@@H]2O[C@H](COP(=O)(O)OP(=O)(O)OP(=O)(O)O)[C@@H](O)[C@H]2O)c(=O)[nH]1 [GTP, guanosine triphosphate]","cell survival, of the untreated control, rotenone-induced death","[1]; 0.2 μM rotenone, MTT",17%
same,cell survival in H2O2-induced death (in words),[1],moderately increased cell survival
"CC(C)(COP(=O)(O)OP(=O)(O)OC[C@H]1O[C@@H](n2cnc3c(N)ncnc32)[C@H](O)[C@@H]1OP(=O)(O)O)[C@@H](O)C(=O)NCCC(=O)NCCS [CoA, coenzyme A, reference compound]",effect on APP α-processing / APP secretion (in words),[2],did not show the same effects
"Nc1ncnc2c1ncn2[C@@H]1O[C@H](COP(=O)(O)OP(=O)(O)O)[C@@H](O)[C@H]1O [ADP, adenosine diphosphate, reference compound]",effect on APP α-processing / APP secretion (in words),[2],did not show the same effects
"CN(CC(=O)O)C(=N)N [Cr, creatine, reference compound]",effect on APP α-processing / APP secretion (in words),[2],did not show the same effects
"C=C(C)[C@H]1Cc2c(ccc3c2O[C@@H]2COc4cc(OC)c(OC)cc4[C@@H]2C3=O)O1 [rotenone, reference compound]",cell death caused by rotenone alone,"[1]; 0.2 μM rotenone, MTT",caused all cells to die by 2 days
same,"sAPPα level, of the control, rotenone alone","[3]; young fibroblasts, 0.2 μM rotenone, two hours",52.3%
"C=C(OP(=O)(O)O)C(=O)O [PEP, phosphoenol pyruvate]","cell survival, of the untreated control, rotenone-induced death","[1]; 0.2 μM rotenone, MTT",53%
same,"cell morphology under microscopy, rotenone-induced death","[1]; 0.2 μM rotenone, pre-incubation 1 mM for 30 min",substantially preserved the cell shape and the processes
same,"cell survival, of the control, H2O2-induced death",[1],38%
same,"sAPPα level, of the control, co-treatment with rotenone",[3]; young fibroblasts,90.3%
"Nc1ncnc2c1ncn2[C@@H]1O[C@H](COP(=O)(O)OP(=O)(O)OP(=O)(O)O)[C@@H](O)[C@H]1O [ATP, adenosine triphosphate]","cell survival, of the untreated control, rotenone-induced death","[1]; 0.2 μM rotenone, MTT",15%
same,cell survival in H2O2-induced death (in words),[1],moderately increased cell survival
same,sAPPα release relative to basal line,[2],3.3 fold
same,EC50,"[2]; Homo sapiens, read-out: EC50 for promoting sAPPα release",480 µM
same,stimulatory effect on sAPPα release in the presence of NaN3,[2]; NaN3 25 mM pre-incubated 15 minutes,completely abolished
same,stimulatory effect on sAPPα release in the presence of rotenone,[2]; rotenone 20 μM pre-incubated 15 minutes,completely abolished
same,"sAPPα release in aged cells, of the young cell level",[3],82.3%
same,"sAPPα level, of the control, co-treatment with rotenone",[3]; young fibroblasts,79.2%
same,"sAPPα level, of the control, co-treatment with H2O2",[3]; young fibroblasts,89.3%
"OO [H2O2, reference compound]",cell death caused by H2O2 alone,[1]; 0.6 mM H2O2,killed all cells by 10 hours
same,"sAPPα release, of the young cell control, H2O2 alone","[3]; young fibroblasts, 0.2 mM H2O2, two hours",46.1%
